Earlier results as cited in patent US4729992A, “Cephalosporin esters, their production and use” (Tatsuo Chemical Ind., Ltd., priority 1984, dated 1988).

What was measured:
Settings in all cases: Antimicrobial Agent and Chemotherapy 14, 557-568 (1978)
[1] = system: Proteus morganii
[2] = system: Proteus vulgaris
[3] = system: Klebsiella pneumoniae
[4] = system: Escherichia coli
[5] = system: Proteus mirabilis
[6] = system: Staphylococcus aureus

Measured: antibacterial activity

CN(C)CCn1nnnc1SCC1=C(C(=O)O)N2C(=O)[C@@H](NC(=O)Cc3csc(N)n3)[C@H]2SC1 [compound [II], 7β-[2-(2-aminothiazol-4-yl)acetamido]3-[[[1-(2-dimethylaminoethyl)-1H-tetrazol-5-yl]thio]methyl]ceph-3-em-4-carboxylic acid]
potent antibacterial activity: all assays above
